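The concentration for 50% growth inhibition is given as GI50. The concentration for full growth arrest is given as TGI.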
Key:
Assay in all cases: DTP human tumour cell line panel, 384-well format
HOP-92 NSCLC = test system: HOP-92 NSCLC
LOX IMVI melanoma = test system: LOX IMVI melanoma
HCT-116 colon = test system: HCT-116 colon
OVCAR-4 ovarian = test system: OVCAR-4 ovarian
SF-295 CNS = test system: SF-295 CNS
NCI-H522 lung = test system: NCI-H522 lung
786-0 renal = test system: 786-0 renal
CAKI-1 renal = test system: CAKI-1 renal
T-47D breast = test system: T-47D breast
NCI-H322M lung = test system: NCI-H322M lung
BT-549 breast = test system: BT-549 breast
MALME-3M melanoma = test system: MALME-3M melanoma
SN12C renal = test system: SN12C renal
EKVX NSCLC = test system: EKVX NSCLC
NCI-H460 NSCLC = test system: NCI-H460 NSCLC
RXF 393 renal = test system: RXF 393 renal
RPMI-8226 leukemia = test system: RPMI-8226 leukemia
CCRF-CEM leukemia = test system: CCRF-CEM leukemia
COLO 205 colon = test system: COLO 205 colon
OVCAR-8 ovarian = test system: OVCAR-8 ovarian
SF-268 CNS = test system: SF-268 CNS
OVCAR-3 ovarian = test system: OVCAR-3 ovarian
A498 renal = test system: A498 renal
MCF7 breast = test system: MCF7 breast
IGROV1 ovarian = test system: IGROV1 ovarian
NCI-H226 lung = test system: NCI-H226 lung
SNB-75 CNS = test system: SNB-75 CNS
MDA-MB-435 melanoma = test system: MDA-MB-435 melanoma
HL-60(TB) leukemia = test system: HL-60(TB) leukemia
DU-145 prostate = test system: DU-145 prostate
ACHN renal = test system: ACHN renal
HOP-62 NSCLC = test system: HOP-62 NSCLC
TK-10 renal = test system: TK-10 renal
MDA-MB-468 breast = test system: MDA-MB-468 breast
HCT-15 colon = test system: HCT-15 colon
SK-OV-3 ovarian = test system: SK-OV-3 ovarian
M14 melanoma = test system: M14 melanoma
SNB-19 CNS = test system: SNB-19 CNS
UACC-257 melanoma = test system: UACC-257 melanoma
UACC-62 melanoma = test system: UACC-62 melanoma
A549 NSCLC = test system: A549 NSCLC
MOLT-4 leukemia = test system: MOLT-4 leukemia
SK-MEL-28 melanoma = test system: SK-MEL-28 melanoma
KM12 colon = test system: KM12 colon
U251 glioblastoma = test system: U251 glioblastoma
NCI-H23 lung = test system: NCI-H23 lung
SR leukemia = test system: SR leukemia
SW-620 colon = test system: SW-620 colon
HCC-2998 colon = test system: HCC-2998 colon
PC-3 prostate = test system: PC-3 prostate
NCI/ADR-RES ovarian = test system: NCI/ADR-RES ovarian
SK-MEL-5 melanoma = test system: SK-MEL-5 melanoma
HT29 colon = test system: HT29 colon
SF-539 CNS = test system: SF-539 CNS
UO-31 renal = test system: UO-31 renal
K-562 leukemia = test system: K-562 leukemia
HS 578T breast = test system: HS 578T breast
MDA-MB-231 breast = test system: MDA-MB-231 breast

`Cc1sc2c(c1C)C(c1ccc(Cl)cc1)=N[C@@H](CC(=O)Nc1ccc(O)cc1)c1nnc(C)n1-2` was tested, and the GI50 (HOP-92 NSCLC) was 156 nM, the TGI (HOP-92 NSCLC) was 11500 nM and the GI50 (LOX IMVI melanoma) was 108 nM. The TGI (LOX IMVI melanoma) was 266 nM, the GI50 (HCT-116 colon) was 235 nM and the TGI (HCT-116 colon) was 12500 nM. It also gave a GI50 (OVCAR-4 ovarian) of 128 nM, a TGI (OVCAR-4 ovarian) of 798 nM and a GI50 (SF-295 CNS) of 803 nM. It also gave a TGI (SF-295 CNS) of 13100 nM, a GI50 (NCI-H522 lung) of 62.4 nM and a TGI (NCI-H522 lung) of 730 nM. It also gave a GI50 ([…]-0 renal) of 114 nM, a TGI (786-0 renal) of 12600 nM and a GI50 (CAKI-1 renal) of 44.9 nM. It also gave a TGI (CAKI-1 renal) of 7150 nM, a GI50 (T-47D breast) of 252 nM and a TGI (T-47D breast) of 15300 nM. For the same compound, the GI50 (NCI-H322M lung) was 219 nM, the TGI (NCI-H322M lung) was 14300 nM and the GI50 (BT-549 breast) was 41.7 nM. It also gave a TGI (BT-549 breast) of 1780 nM, a GI50 (MALME-3M melanoma) of 194 nM and a TGI (MALME-3M melanoma) of 3600 nM. For the same compound, the GI50 (SN12C renal) was 420 nM, the TGI (SN12C renal) was 13100 nM and the GI50 (EKVX NSCLC) was 3090 nM. The TGI (EKVX NSCLC) was 20100 nM, the GI50 (NCI-H460 NSCLC) was 337 nM and the TGI (NCI-H460 NSCLC) was 14900 nM. For the same compound, the GI50 (RXF 393 renal) was 740 nM, the TGI (RXF 393 renal) was 4390 nM and the GI50 (RPMI-8226 leukemia) was 23.1 nM. For the same compound, the TGI (RPMI-8226 leukemia) was 153 nM, the GI50 (CCRF-CEM leukemia) was 106 nM and the TGI (CCRF-CEM leukemia) was 8000 nM. For the same compound, the GI50 (COLO 205 colon) was 164 nM, the TGI (COLO 205 colon) was 2090 nM and the GI50 (OVCAR-8 ovarian) was 118 nM. It also gave a TGI (OVCAR-8 ovarian) of 1570 nM, a GI50 (SF-268 CNS) of 627 nM and a TGI (SF-268 CNS) of 12800 nM. For the same compound, the GI50 (OVCAR-3 ovarian) was 66.6 nM, the TGI (OVCAR-3 ovarian) was 1910 nM and the GI50 (A498 renal) was 380 nM. For the same compound, the TGI (A498 renal) was 10400 nM, the GI50 (MCF7 breast) was 54.3 nM and the TGI (MCF7 breast) was 12400 nM. It also gave a GI50 (IGROV1 ovarian) of 158 nM, a TGI (IGROV1 ovarian) of 4130 nM and a GI50 (NCI-H226 lung) of 98.3 nM. The TGI (NCI-H226 lung) was 8210 nM, the GI50 (SNB-75 CNS) was 367 nM and the TGI (SNB-75 CNS) was 13700 nM. For the same compound, the GI50 (MDA-MB-435 melanoma) was 1030 nM, the TGI (MDA-MB-435 melanoma) was 12600 nM and the GI50 (HL-60(TB) leukemia) was 11.4 nM. The TGI (HL-60(TB) leukemia) was 44.6 nM, the GI50 (DU-145 prostate) was 1170 nM and the TGI (DU-145 prostate) was 28000 nM. It also gave a GI50 (ACHN renal) of 877 nM, a TGI (ACHN renal) of 15600 nM and a GI50 (HOP-62 NSCLC) of 158 nM. For the same compound, the TGI (HOP-62 NSCLC) was 3900 nM, the GI50 (TK-10 renal) was 154 nM and the TGI (TK-10 renal) was 3700 nM. The GI50 (MDA-MB-468 breast) was 175 nM, the TGI (MDA-MB-468 breast) was 1940 nM and the GI50 (HCT-15 colon) was 247 nM. It also gave a TGI (HCT-15 colon) of 7330 nM, a GI50 (SK-OV-3 ovarian) of 173 nM and a TGI (SK-OV-3 ovarian) of 5480 nM. For the same compound, the GI50 (M14 melanoma) was 262 nM, the TGI (M14 melanoma) was 12100 nM and the GI50 (SNB-19 CNS) was 355 nM. It also gave a TGI (SNB-19 CNS) of 16700 nM, a GI50 (UACC-257 melanoma) of 174 nM and a TGI (UACC-257 melanoma) of 16400 nM. The GI50 (UACC-62 melanoma) was 42.2 nM, the TGI (UACC-62 melanoma) was 2960 nM and the GI50 (A549 NSCLC) was 596 nM. It also gave a TGI (A549 NSCLC) of 14700 nM, a GI50 (MOLT-4 leukemia) of 61 nM and a TGI (MOLT-4 leukemia) of 1280 nM. The GI50 (SK-MEL-28 melanoma) was 581 nM, the TGI (SK-MEL-28 melanoma) was 15700 nM and the GI50 (KM12 colon) was 471 nM. It also gave a TGI (KM12 colon) of 16400 nM, a GI50 (U251 glioblastoma) of 644 nM and a TGI (U251 glioblastoma) of 14600 nM. It also gave a GI50 (NCI-H23 lung) of 213 nM, a TGI (NCI-H23 lung) of 2860 nM and a GI50 (SR leukemia) of 11.7 nM. The TGI (SR leukemia) was 58.8 nM, the GI50 (SW-620 colon) was 1180 nM and the TGI (SW-620 colon) was 18500 nM. For the same compound, the GI50 (HCC-2998 colon) was 107 nM, the TGI (HCC-2998 colon) was 1050 nM and the GI50 (PC-3 prostate) was 228 nM. For the same compound, the TGI (PC-3 prostate) was 14600 nM, the GI50 (NCI/ADR-RES ovarian) was 1890 nM and the TGI (NCI/ADR-RES ovarian) was 8450 nM. The GI50 (SK-MEL-5 melanoma) was 304 nM, the TGI (SK-MEL-5 melanoma) was 10700 nM and the GI50 (HT29 colon) was 104 nM. The TGI (HT29 colon) was 2080 nM, the GI50 (SF-539 CNS) was 292 nM and the TGI (SF-539 CNS) was 12500 nM. It also gave a GI50 (UO-31 renal) of 632 nM, a TGI (UO-31 renal) of 14400 nM and a GI50 (K-562 leukemia) of 133 nM. For the same compound, the TGI (K-562 leukemia) was 13400 nM, the GI50 (HS 578T breast) was 37.2 nM and the TGI (HS 578T breast) was 355 nM. The GI50 (MDA-MB-231 breast) was 81.6 nM and the TGI (MDA-MB-231 breast) was 14300 nM.

Source: PubChem BioAssay (NCI)
